Key:
Nqo1 gene = experiment: Effect of inducing Nrf2 target gene (in vivo): Nqo1 gene expression in mouse kidney after oral administration; set-up: species or system C57 Black 6 mouse; settings: for Nqo1 gene expression level: solvent group defined as 1, mean ± SD, 6 mice; for induction of the Nqo1 gene (in words): oral, derivative B at a dose of 1 mg/kg
Protocol: The Nqo1 gene was used as the Nrf2 target gene.
Respective suspensions of terpenoid derivative B of the present invention obtained in Example 1 and CDDO-Me were prepared using 0.5 w/v % methylcellulose solution 400 cP (Wako Pure Chemical Industries, Ltd., catalog No. 133-14255) as a solvent. Each suspension was orally administered once a day for 12 consecutive days at a dose of 1, 3, or 10 mg/kg with administration volume of 10 mL/kg to each C57 Black 6 mouse (Charles River Laboratories Japan, Inc., male, 8 weeks old at the time of receipt, 10 weeks old at the start of the experiment). On the next day of the final administration, the mouse was euthanized, and the kidney was sampled. From the sampled kidney, mRNA was collected using an extraction kit (manufactured by Qiagen N.V., RNeasy Mini Kit, catalog No. 74106). From the obtained mRNA, cDNA was prepared using a cDNA synthesis kit (manufactured by GE Healthcare Life Sciences, First-Strand cDNA Synthesis Kit). The obtained cDNA was amplified using a reagent (manufactured by Applied Biosystems, Inc., TaqMan(R) Gene Expression Master Mix (catalog No. 4369016)) and a probe, and subjected to real-time quantitative PCR (Real-time PCR HT7900 manufactured by Applied Biosystems, Inc. was used). […] Each group consisted of 6 mice and was indicated as a mean and standard deviation.

NQO1 = NQO1 assay in Hepa1c1c7 cells; type: cell-based, mouse; settings: approx. 48 hours, mean of 3 wells
Protocol: Hepa1c1c7 cells (mouse hepatic cell line, ATCC, catalog No. CRL-2026) were cultured (5% CO2, 37° C.). A DMEM (Life Technologies Japan Ltd., catalog No. 11965-092) medium also containing 10% inactivated FBS was used. The medium contained 100 units/mL (final concentration) penicillin and 100 μg/[…] (final concentration) streptomycin. The NQO1 assay was conducted according to previous reports (Anal Biochem 1998; 169: 328-; and Methods Enzymol 2004; 382: 243-).
The Hepa1c1c7 cells were seeded at 10000 cells/well in a 96-well plate. The amount of the medium was 100 μL. Approximately 24 hours later, the medium was replaced with a medium containing CDDO-Me or each of terpenoid derivatives A to G, followed by further culture for approximately 48 hours. A lysis solution (a solution containing 2 mM EDTA and 0.8% digitonin), a reaction solution (a solution containing 0.025 M of tris-HCl, 0.067% of albumin, 0.01% of Tween-20, 2 U/mL of glucose-6-phosphate dehydrogenase, 5 μM of flavin adenine dinucleotide, 1 […], 30 μM of nicotinamide adenine dinucleotide phosphate, 0.03% of 3-(4,5-dimethyl-2-thiazolyl)-2,5-diphenyltetrazolium bromide (MTT), and 50 μM of menadione), and a stop solution (a solution containing 0.3 mM dicumarol and 5 mM potassium dihydrogen phosphate, pH 7.4) were prepared. After removal of the medium, 50 μL of the lysis solution was added thereto, and the mixture was left standing at 37° C. for 10 minutes. The reaction mixture was further shaken at room temperature for 10 minutes.
Two hundred μL of the solution was added thereto, and the mixture was left standing at room temperature for 5 minutes. Fifty μL of the stop solution was added thereto, and the absorbance at 490 nm was measured.
The test results were analyzed using Prism (GraphPad Software, Inc., Ver. 5) to calculate the CD value of the concentration at which the activity of NQO1 was increased 2-fold. Each group consisted of 3 wells and indicated as a mean of CD values.

ARPE-19 cells = experiment: Cytoprotective action: suppression of t-BHP-induced decrease in number of live ARPE-19 cells; type: cell-based, human; settings: 300 μM t-BHP; for Number of live cells (percentage): no t-BHP/no compound = 100%, mean ± SD, 3 wells
Protocol: The peroxide tert-butyl hydroperoxide (t-BHP) is known to cause oxidative stress-dependent cell injury (Chem Biol Interact 2009; 181: 366- and Food Chem Toxicol 2011; 49: 2081-).
The test compound was terpenoid derivative B of the present invention obtained in Example 1 and CDDO-Me as Comparative Example.
ARPE-19 cells were cultured (5% CO2, 37° C.) using a DMEM/F12 (Life Technologies Japan Ltd., catalog No. 11330-032) mixed medium containing 10% inactivated FBS. The medium contained 100 units/mL (final concentration) penicillin and 100 μg/mL (final concentration) streptomycin.
The ARPE-19 cells were seeded at 10000 cells/well in a 96-well plate. The amount of the medium was 100 μL. Approximately 6 hours later, the medium was replaced with a medium containing terpenoid derivative B of the present invention obtained in Example 1 or CDDO-Me. After culture for approximately 16 hours, the number of live ARPE-19 cells was measured (Cell Counting Kit-8 (catalog No. CK01) manufactured by Dojindo Laboratories was used). Then, the medium was replaced with medium containing 300 μM t-BHP (manufactured by Sigma-Aldrich Corp., catalog No. 46665) and further containing terpenoid derivative B of the present invention obtained in Example 1 or CDDO-Me. Approximately 6 hours after the addition of t-BHP, the number of live ARPE-19 cells was measured.
The number of live cells in medium containing neither t-BHP nor the test compound was defined as 100%. The number of live cells in medium containing 300 μM t-BHP and each concentration of the test compound was indicated by percentage. Each group consisted of 3 wells and was indicated as a mean and standard deviation.

[1] = 1 mg/kg oral once a day for 12 days
[2] = 3 mg/kg oral once a day for 12 days
[3] = 10 mg/kg oral once a day for 12 days

Compound | Nqo1 gene expression level (Nqo1 gene; [1]) | Nqo1 gene expression level (Nqo1 gene; [2]) | Nqo1 gene expression level (Nqo1 gene; [3]) | induction of the Nqo1 gene (in words) (Nqo1 gene) | CD value (concentration at which the activity of NQO1 was increased 2-fold) (NQO1) | Number of live cells (percentage) (ARPE-19 cells; 0.03 nM test compound) | Number of live cells (percentage) (ARPE-19 cells; 0.3 nM test compound) | Number of live cells (percentage) (ARPE-19 cells; 3 nM test compound) | Number of live cells (percentage) (ARPE-19 cells; 30 nM test compound) | Number of live cells (percentage) (ARPE-19 cells; 300 nM test compound) | suppression of the decrease in the number of live cells caused by t-BHP (in words) (ARPE-19 cells)
COC(=O)[C@@]12CC[C@]3(C)[C@H](C(=O)C=C4[C@@]5(C)[C@H]6O[C@@]6(C#N)C(=O)C(C)(C)[C@@H]5CC[C@]43C)[C@@H]1CC(C)(C)[C@@H](O)C2 [terpenoid derivative B] | 1.2 ± 0.1 | 1.8 ± 0.2 | 2.3 ± 0.2 | confirmed to induce the Nqo1 gene | 0.3 nM | 90.3 ± 3.9% | 99.0 ± 10.0% | 119.7 ± 5.7% | 114.3 ± 9.5% | 111.2 ± 3.8% | –
COC(=O)[C@]12CCC(C)(C)C[C@H]1[C@H]1C(=O)C=C3[C@@]4(C)C=C(C#N)C(=O)C(C)(C)[C@@H]4CC[C@@]3(C)[C@]1(C)CC2 [CDDO-Me, methyl 2-cyano-3,12-dioxooleana-1,9-dien-28-oate, reference compound] | 1.0 ± 0.0 | 1.0 ± 0.1 | 1.0 ± 0.1 | not confirmed to induce the Nqo1 gene | 1.0 nM | 61.8 ± 2.0% | 56.7 ± 1.2% | 74.3 ± 1.4% | 84.7 ± 4.8% | 76.1 ± 2.8% | did not completely suppress the decrease in the number of live cells

Source: patent US10253060B2, “Terpenoid derivatives” (Daiichi Sankyo Company, Limited, priority 2013, dated 2019)
